Data from PubChem BioAssay AID330 (DTP/NCI, 2004).
Several values for one entry are separate records, joined by “and”; a condition that tells them apart may be missing. Equal values may be shown once. Inconclusive results and toxic doses are left out.

System: P388 leukemia ip, CD2F1 mice, survival T/C
Test: NCI In Vivo Anticancer Drug Screen. Data for tumor model P388 Leukemia (intraperitoneal) in CD2F1 (CDF1) mice
Settings: endpoint: median survival time, higher = longer survival
Summary of the method: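 Mice carrying the transplanted tumor received test compound or vehicle. Survival was recorded in each group, and the value is the treated-group measurement divided by that of the vehicle-treated control group.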

[1] = dose: 100.0 mg/kg/injection, schedule: Q04DX003 (ip), vehicle: saline with Tween-80
[2] = dose: 50.0 mg/kg/injection, schedule: Q01DX005 (ip), vehicle: Klucel (hydroxypropylcellulose) (HPC)
[3] = dose: 100.0 mg/kg/injection, schedule: Q01DX005 (ip), vehicle: Klucel (hydroxypropylcellulose) (HPC)
[4] = dose: 200.0 mg/kg/injection, schedule: Q01DX005 (ip), vehicle: Klucel (hydroxypropylcellulose) (HPC)
[5] = dose: 50.0 mg/kg/injection, schedule: Q01DX009 (ip), vehicle: saline with Tween-80
[6] = dose: 100.0 mg/kg/injection, schedule: Q01DX009 (ip), vehicle: saline with Tween-80
[7] = dose: 200.0 mg/kg/injection, schedule: Q01DX009 (ip), vehicle: saline with Tween-80

## CC(=O)C1(O)Cc2c(O)c3c(c(O)c2C(OC2CC(N)C(O)C(C)O2)C1)C(=O)c1ccccc1C3=O (centres undefined)
dose: 0.03 mg/kg/injection, schedule: Q01DX009 (ip), vehicle: water
  T/C: 116 % of control
dose: 0.1 mg/kg/injection, schedule: Q01DX009 (ip), vehicle: water
  T/C: 150 % of control and 155 % of control and 158 % of control
dose: 0.12 mg/kg/injection, schedule: Q01DX005 (ip), vehicle: water
  T/C: 151 % of control
dose: 0.15 mg/kg/injection, schedule: Q04DX003 (ip), vehicle: water
  T/C: 106 % of control
dose: 0.2 mg/kg/injection, schedule: Q01DX009 (ip), vehicle: water
  T/C: 167 % of control and 171 % of control and 183 % of control
dose: 0.21 mg/kg/injection, schedule: Q04DX003 (ip), vehicle: water
  T/C: 166 % of control
dose: 0.25 mg/kg/injection, schedule: Q01DX005 (ip), vehicle: water
  T/C: 164 % of control
dose: 0.3 mg/kg/injection, schedule: Q04DX003 (ip), vehicle: water
  T/C: 114 % of control
dose: 0.36 mg/kg/injection, schedule: Q04DX003 (ip), vehicle: water
  T/C: 170 % of control
dose: 0.39 mg/kg/injection, schedule: Q01DX009 (ip), vehicle: water
  T/C: 170 % of control
dose: 0.4 mg/kg/injection, schedule: Q01DX009 (ip), vehicle: water
  T/C: 205 % of control
dose: 0.5 mg/kg/injection, schedule: Q01DX005 (ip), vehicle: water
  T/C: 180 % of control
dose: 0.5 mg/kg/injection, schedule: Q01DX005 (oral), vehicle: water
  T/C: 104 % of control
dose: 0.6 mg/kg/injection, schedule: Q04DX003 (ip), vehicle: water
  T/C: 118 % of control
dose: 0.78 mg/kg/injection, schedule: Q01DX009 (ip), vehicle: water
  T/C: 173 % of control
dose: 1.0 mg/kg/injection, schedule: Q01DX005 (ip), vehicle: water
  T/C: 114 % of control
dose: 1.0 mg/kg/injection, schedule: Q01DX005 (oral), vehicle: water
  T/C: 107 % of control
dose: 1.3 mg/kg/injection, schedule: Q01DX001 (ip), vehicle: water
  T/C: 97 % of control
dose: 1.8 mg/kg/injection, schedule: Q01DX001 (ip), vehicle: water
  T/C: 97 % of control
dose: 2.0 mg/kg/injection, schedule: Q01DX005 (oral), vehicle: water
  T/C: 112 % of control
dose: 2.4 mg/kg/injection, schedule: Q04DX003 (ip), vehicle: water
  T/C: 152 % of control and 174 % of control
dose: 4.0 mg/kg/injection, schedule: Q01DX005 (oral), vehicle: water
  T/C: 152 % of control
dose: 4.8 mg/kg/injection, schedule: Q04DX003 (ip), vehicle: water
  T/C: 102 % of control and 106 % of control
dose: 8.0 mg/kg/injection, schedule: Q01DX005 (oral), vehicle: water
  T/C: 107 % of control
dose: 9.6 mg/kg/injection, schedule: Q04DX003 (ip), vehicle: water
  T/C: 96 % of control

## CN1CCN(C2=C(Cl)C(=O)c3ccccc3C2=O)CC1
dose: 1.25 mg/kg/injection, schedule: Q01DX009 (ip), vehicle: saline
  T/C: 100 % of control
dose: 2.5 mg/kg/injection, schedule: Q01DX009 (ip), vehicle: saline
  T/C: 103 % of control
dose: 5.0 mg/kg/injection, schedule: Q01DX009 (ip), vehicle: saline
  T/C: 109 % of control

## COc1ccc(CSC(=S)Nc2cc(Cl)c(Cl)cc2Cl)cc1
dose: 12.5 mg/kg/injection, schedule: Q01DX009 (ip), vehicle: saline
  T/C: 88 % of control
dose: 25.0 mg/kg/injection, schedule: Q01DX009 (ip), vehicle: saline
  T/C: 97 % of control
dose: 50.0 mg/kg/injection, schedule: Q01DX009 (ip), vehicle: saline
  T/C: 99 % of control
dose: 50.0 mg/kg/injection, schedule: Q01DX009 (ip), vehicle: suspension in saline
  T/C: 93 % of control
dose: 100.0 mg/kg/injection, schedule: Q01DX009 (ip), vehicle: suspension in saline
  T/C: 103 % of control

## CCN(CC)CCn1[nH]c2c3ccc(=O)cc3sc3c(NCCN)ccc1c32
dose: 3.12 mg/kg/injection, schedule: Q01DX005 (ip), vehicle: water
  T/C: 122 % of control and 229 % of control and 242 % of control
dose: 6.25 mg/kg/injection, schedule: Q01DX005 (ip), vehicle: water
  T/C: 184 % of control and 250 % of control and 280 % of control
dose: 12.5 mg/kg/injection, schedule: Q01DX005 (ip), vehicle: water
  T/C: 166 % of control and 194 % of control and 271 % of control

## CCCCc1cc(-c2ccc(C)cc2)c(CCCC)c2c1-c1cccc3cccc-2c13
[1]
  T/C: 98 % of control
dose: 200.0 mg/kg/injection, schedule: Q04DX003 (ip), vehicle: saline with Tween-80
  T/C: 91 % of control
dose: 400.0 mg/kg/injection, schedule: Q04DX003 (ip), vehicle: saline with Tween-80
  T/C: 92 % of control

## CCOC(=O)C(Cc1c[nH]c2ccccc12)NC(=O)[C@@]1(O)[C@H](O)[C@]2(CC)C=CCN3CC[C@@]4(c5cc([C@@]6(C(=O)OC)C[C@@H]7CN(CCc8c6[nH]c6ccccc86)C[C@](O)(CC)C7)c(OC)cc5N(C)[C@@H]14)[C@@H]32 (some centres undefined)
dose: 1.0 mg/kg/injection, schedule: Q01DX001 (ip), vehicle: saline
  T/C: 108 % of control and 109 % of control
dose: 2.0 mg/kg/injection, schedule: Q01DX001 (ip), vehicle: saline
  T/C: 108 % of control and 112 % of control
dose: 4.0 mg/kg/injection, schedule: Q01DX001 (ip), vehicle: saline
  T/C: 109 % of control and 116 % of control
dose: 8.0 mg/kg/injection, schedule: Q01DX001 (ip), vehicle: saline
  T/C: 115 % of control and 118 % of control
dose: 32.0 mg/kg/injection, schedule: Q01DX001 (ip), vehicle: saline
  T/C: 153 % of control and 157 % of control

## O=c1cccccc1O.O=c1cccccc1O.O=c1cccccc1O.[Ru]
[2]
  T/C: 96 % of control
[3]
  T/C: 100 % of control
[4]
  T/C: 116 % of control

## O=NNc1ccc2ccccc2n1
dose: 3.12 mg/kg/injection, schedule: Q01DX009 (ip), vehicle: water
  T/C: 122 % of control
dose: 25.0 mg/kg/injection, schedule: Q01DX009 (ip), vehicle: water
  T/C: 91 % of control and 94 % of control

## O=S1(=O)CCN(C2CC2)CC1
dose: 12.5 mg/kg/injection, schedule: Q01DX009 (ip), vehicle: Klucel (hydroxypropylcellulose) (HPC)
  T/C: 98 % of control
dose: 25.0 mg/kg/injection, schedule: Q01DX009 (ip), vehicle: Klucel (hydroxypropylcellulose) (HPC)
  T/C: 100 % of control
dose: 50.0 mg/kg/injection, schedule: Q01DX009 (ip), vehicle: Klucel (hydroxypropylcellulose) (HPC)
  T/C: 111 % of control

## COC(=O)C=P(c1ccccc1)(c1ccccc1)c1ccccc1
dose: 25.0 mg/kg/injection, schedule: Q01DX009 (ip), vehicle: saline with Tween-80
  T/C: 104 % of control
[5]
  T/C: 100 % of control
[6]
  T/C: 91 % of control

## CNC(=O)Nc1nccs1
[5]
  T/C: 105 % of control
[6]
  T/C: 96 % of control
[7]
  T/C: 97 % of control

## Nc1[nH]c(=S)[nH]c(=O)c1NS(=O)(=O)c1ccc([N+](=O)[O-])cc1
dose: 30.0 mg/kg/injection, schedule: Q01DX005 (ip), vehicle: Klucel (hydroxypropylcellulose) (HPC)
  T/C: 101 % of control and 108 % of control
dose: 60.0 mg/kg/injection, schedule: Q01DX005 (ip), vehicle: Klucel (hydroxypropylcellulose) (HPC)
  T/C: 98 % of control and 94 % of control
dose: 120.0 mg/kg/injection, schedule: Q01DX005 (ip), vehicle: Klucel (hydroxypropylcellulose) (HPC)
  T/C: 101 % of control and 92 % of control
dose: 240.0 mg/kg/injection, schedule: Q01DX005 (ip), vehicle: Klucel (hydroxypropylcellulose) (HPC)
  T/C: 90 % of control

## NCC[Se][Se]CCN
dose: 1.56 mg/kg/injection, schedule: Q01DX009 (ip), vehicle: saline
  T/C: 98 % of control
dose: 3.12 mg/kg/injection, schedule: Q01DX009 (ip), vehicle: saline
  T/C: 98 % of control
dose: 6.25 mg/kg/injection, schedule: Q01DX009 (ip), vehicle: saline
  T/C: 104 % of control

## COc1ccc(C2=C/C(=C/c3ccc(N(CCC#N)CCC#N)cc3)C(=O)O2)cc1
dose: 100.0 mg/kg/injection, schedule: Q01DX001 (ip), vehicle: saline with Tween-80
  T/C: 97 % of control
dose: 200.0 mg/kg/injection, schedule: Q01DX001 (ip), vehicle: saline with Tween-80
  T/C: 95 % of control
dose: 400.0 mg/kg/injection, schedule: Q01DX001 (ip), vehicle: saline with Tween-80
  T/C: 92 % of control

## COc1cc(OC)c(NC(=O)N(NC(=O)NNc2ccccc2)c2ccccc2)cc1Cl
[2]
  T/C: 100 % of control
[3]
  T/C: 100 % of control
[4]
  T/C: 95 % of control

## CCN(CC)CCCC(C)Nc1c2ccc(Cl)cc2nc2cc(N=Nc3cccc4ccccc34)c(OC)cc12 (centres undefined)
dose: 25.0 mg/kg/injection, schedule: Q04DX003 (ip), vehicle: saline with Tween-80
  T/C: 92 % of control
dose: 50.0 mg/kg/injection, schedule: Q04DX003 (ip), vehicle: saline with Tween-80
  T/C: 92 % of control
[1]
  T/C: 118 % of control

## CCN(CC)CC.[CH-]1CCCCC1.[CH-]1CCCCC1.[CH-]1CCCCC1.[Cl-].[Cl-].[Sn+4]
dose: 3.12 mg/kg/injection, schedule: Q01DX005 (ip), vehicle: saline with Tween-80
  T/C: 107 % of control
dose: 6.25 mg/kg/injection, schedule: Q01DX005 (ip), vehicle: saline with Tween-80
  T/C: 110 % of control

## O=C(N/N=C/c1ccccc1O)C(=O)NC1CC1
[5]
  T/C: 92 % of control
[6]
  T/C: 91 % of control
[7]
  T/C: 91 % of control
